inhibition, half-life and IC50 data for 10 compounds are collected here from ChEMBL document CHEMBL3882724 (2013).

For orientation: inhibition means the share of the control response that was lost under treatment. What is called half-life is the time needed for the level to fall by half in the phase considered. Low values mean rapid decline, high ones slow decline. Usually IC50 stands for the concentration that gives 50% inhibition.

Structures are written as SMILES.

Series [1] addresses T1, Steroid 17-alpha-hydroxylase/17,20 lyase (Homo sapiens, UniProt P05093).
T1 sequence (P05093 whole entry): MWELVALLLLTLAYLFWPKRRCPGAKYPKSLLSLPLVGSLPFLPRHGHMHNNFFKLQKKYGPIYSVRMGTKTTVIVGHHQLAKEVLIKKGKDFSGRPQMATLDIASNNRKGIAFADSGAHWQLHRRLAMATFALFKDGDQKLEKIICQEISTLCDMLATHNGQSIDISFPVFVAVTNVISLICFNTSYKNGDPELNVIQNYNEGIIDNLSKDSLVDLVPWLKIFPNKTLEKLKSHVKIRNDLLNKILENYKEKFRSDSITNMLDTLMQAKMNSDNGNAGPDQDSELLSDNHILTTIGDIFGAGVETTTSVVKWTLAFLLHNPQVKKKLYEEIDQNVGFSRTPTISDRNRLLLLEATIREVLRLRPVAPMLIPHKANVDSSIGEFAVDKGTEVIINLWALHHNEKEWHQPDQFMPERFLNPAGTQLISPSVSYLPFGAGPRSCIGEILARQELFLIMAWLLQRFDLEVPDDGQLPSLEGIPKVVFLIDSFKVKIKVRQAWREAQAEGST
Description: Inhibition of human C17,20-lyase in human testis microsomes at 10 nM using 17alpha-hydroxypregnenolone/[21-3H]-17alpha-hydroxypregnenolone as substrate after 30 mins by scintillation counting method relative to control. The following applies: 0.5 h.

A short description of series [2]: Half life in rat liver microsomes at 1 uM by LC-MS/MS analysis. For orientation: Microsomes from liver hold many membrane-bound enzymes, among them those of drug oxidation.
The nature of series [3]: Half life in human liver microsomes at 1 uM by LC-MS/MS analysis.
The target in series [4] is T1, Steroid 17-alpha-hydroxylase/17,20 lyase. Description: Inhibition of CYP17 in human testicular microsomes using 17alpha-hydroxypregnenolone as substrate assessed as decrease in DHEA levels after 90 mins by ELISA. The arrangement: species or system Testis. (In general: In an ELISA, binding on a coated surface is turned into a signal by an enzyme label.)
Another series addresses T2, CYP11B (Rattus norvegicus, UniProt P15393+P30099).
T2 sequence (P30099 whole entry): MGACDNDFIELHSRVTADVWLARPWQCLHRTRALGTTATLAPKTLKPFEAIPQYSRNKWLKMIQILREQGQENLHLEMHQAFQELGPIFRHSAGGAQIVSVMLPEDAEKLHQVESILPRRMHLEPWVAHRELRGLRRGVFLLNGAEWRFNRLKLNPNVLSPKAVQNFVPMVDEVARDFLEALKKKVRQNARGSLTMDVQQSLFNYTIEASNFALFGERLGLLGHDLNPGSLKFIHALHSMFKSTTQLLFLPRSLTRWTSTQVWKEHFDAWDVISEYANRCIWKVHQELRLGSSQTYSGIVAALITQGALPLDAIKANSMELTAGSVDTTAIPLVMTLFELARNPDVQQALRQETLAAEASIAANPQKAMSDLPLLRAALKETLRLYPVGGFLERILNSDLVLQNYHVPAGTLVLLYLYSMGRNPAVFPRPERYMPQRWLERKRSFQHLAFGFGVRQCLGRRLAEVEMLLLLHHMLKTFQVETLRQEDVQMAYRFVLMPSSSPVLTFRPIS
T2 sequence (P15393 whole entry): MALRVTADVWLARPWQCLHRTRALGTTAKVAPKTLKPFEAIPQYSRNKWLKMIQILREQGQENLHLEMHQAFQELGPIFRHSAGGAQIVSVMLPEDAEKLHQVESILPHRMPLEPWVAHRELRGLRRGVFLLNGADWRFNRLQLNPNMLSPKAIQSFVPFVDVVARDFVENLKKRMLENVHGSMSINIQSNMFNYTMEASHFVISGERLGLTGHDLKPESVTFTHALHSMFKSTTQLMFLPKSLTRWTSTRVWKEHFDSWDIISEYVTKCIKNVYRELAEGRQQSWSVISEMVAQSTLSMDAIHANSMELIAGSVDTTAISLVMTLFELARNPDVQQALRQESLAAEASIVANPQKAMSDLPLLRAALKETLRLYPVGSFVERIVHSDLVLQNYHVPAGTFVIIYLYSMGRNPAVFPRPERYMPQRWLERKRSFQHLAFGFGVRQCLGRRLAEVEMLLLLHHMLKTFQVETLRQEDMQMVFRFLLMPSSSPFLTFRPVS
Kind of series: Inhibition of Sprague-Dawley rat adrenal mitochondrial CYP11B assessed as decrease in conversion of 11-deoxycortisol to cortisol at 100 nM incubated for 60 mins by ELISA relative to control. In kind it is protein assay. The following applies: adrenal mitochondria, probe 11-deoxycortisol.

Series [5] has as its target T1, Steroid 17-alpha-hydroxylase/17,20 lyase. Kind of series: Inhibition of CYP17 in human H295R cells assessed as decrease in testosterone levels after 24 hrs by ELISA. The class given is cell-based.
Series [6] has as its target T3, CYP21 (steroid 21-hydroxylase) (Homo sapiens, UniProt P08686).
T3 sequence (P08686 whole entry): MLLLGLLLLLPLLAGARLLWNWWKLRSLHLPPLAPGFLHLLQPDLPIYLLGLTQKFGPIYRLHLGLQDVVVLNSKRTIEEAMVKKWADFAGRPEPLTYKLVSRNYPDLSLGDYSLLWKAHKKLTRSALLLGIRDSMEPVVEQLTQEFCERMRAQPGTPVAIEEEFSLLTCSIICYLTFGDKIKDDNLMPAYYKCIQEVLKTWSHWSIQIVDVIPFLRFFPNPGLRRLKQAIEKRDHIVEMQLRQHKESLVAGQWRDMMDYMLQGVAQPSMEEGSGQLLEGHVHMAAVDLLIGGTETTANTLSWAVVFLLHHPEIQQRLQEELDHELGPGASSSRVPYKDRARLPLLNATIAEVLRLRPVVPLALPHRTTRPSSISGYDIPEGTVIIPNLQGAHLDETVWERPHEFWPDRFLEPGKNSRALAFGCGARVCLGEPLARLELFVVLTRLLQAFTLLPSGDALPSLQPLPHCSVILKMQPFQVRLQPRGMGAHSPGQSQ
Description: Inhibition of human CYP21 transfected in HEK293 cells assessed as decrease in conversion of progesterone to 11-deoxycorticosterone at 100 nM preincubated for 5 hrs followed by progesterone addition measured after 20 hrs by ELISA relative to control. The class given is cell-based. The following applies: HEK293 cells transfected with human CYP21, probe progesterone.

The target in series [7] is T1, Steroid 17-alpha-hydroxylase/17,20 lyase. Description: Inhibition of CYP17 in human testicular microsomes using 17alpha-hydroxypregnenolone as substrate assessed as decrease in DHEA levels at 10 nM after 90 mins by ELISA relative to control. As to conditions: 1.5 h. The arrangement: species or system Testis.

For `C[C@]12CCC(=O)OC[C@@H]1CC[C@@H]1[C@@H]2CC[C@]2(C)C(c3cccnc3)=CC[C@@H]12`, the inhibition at 0.01 µM in series [1] was ≥ 38%. In addition, the half-life at 1 µM in series [2] was 10 to 60 min; in series [3] it was 1 to 50 min. Besides, in series [4], the IC50 is ≤ 0.011 µM.
With `C[C@]12CC(O)C[C@@H]1CC[C@@H]1[C@@H]2CC[C@]2(C)C(n3ccnc3)=CC[C@@H]12` (stereo not given in full), the inhibition at 1 h, 0.1 µM at CYP11B is ≥ 50%. Besides, the IC50 in series [5] was ≤ 0.015 µM; in series [4] it was ≤ 0.011 µM. Besides, the inhibition at 20 h, 0.1 µM in series [6] is ≥ 30%. In addition, in series [7], the inhibition at 0.01 µM was ≥ 80%. Also, the half-life at 1 µM in series [2] and in series [3] was 10 to 60 min each time.
In the case of `C[C@]12CC[C@H]3[C@@H](CCN4C(=O)C=CCC[C@]34C)[C@@H]1CC=C2c1cccnc1`, in series [1], the inhibition at 0.01 µM was ≥ 38%.
Turning to `C[C@]12CC[C@H]3[C@@H](CC=C4C[C@@H](O)CC[C@@]43C)C1=CC=C2c1cccnc1`, the inhibition at 1 h, 0.1 µM at CYP11B is < 32%. The IC50 is ≤ 0.015 µM in series [5] and ≤ 0.011 µM in series [4]. Besides, the inhibition at 20 h, 0.1 µM in series [6] is < 30%. The inhibition at 0.01 µM in series [7] fell in the range of 50 to 80%. In addition, the half-life at 1 µM was 10 to 60 min in series [2] and 1 to 50 min in series [3].
`C[C@]12CC[C@H]3[C@@H](CCC4=CC(=O)CC[C@@]43C)C1=CC=C2n1ccnc1`: the inhibition at 1 h, 0.1 µM at CYP11B is ≥ 50%. Also, the inhibition at 20 h, 0.1 µM in series [6] is < 30%. In series [7], the inhibition at 0.01 µM was ≥ 80%. Moreover, the half-life at 1 µM in series [2] is 10 to 60 min; in series [3] it was ≥ 50 min. Besides, in series [4], the 50% inhibitory concentration (IC50) is ≤ 0.011 µM.
`C[C@]12CC[C@H]3[C@@H](CCN4C(=O)CC=CC[C@]34C)[C@@H]1CC=C2c1cccnc1`: the inhibition at 0.01 µM in series [1] is ≥ 38%. The half-life at 1 µM in series [2] and in series [3] was 1 to 10 min in each case.
Consider `CCOc1cncc(C2=CC[C@H]3[C@@H]4CC[C@H]5COC(=O)CC[C@]5(C)[C@H]4CC[C@]23C)c1`, for which the inhibition at 0.01 µM in series [1] lay in the range of 3 to 38%.
Same read-out and setting: for `COc1cncc(C2=CC[C@H]3[C@@H]4CC[C@H]5COC(=O)CC[C@]5(C)[C@H]4CC[C@]23C)c1` the value was ≥ 38%.
Regarding `C[C@]12CCNC(=O)C=C1CC[C@@H]1[C@@H]2CC[C@]2(C)C(n3cncn3)=CC[C@@H]12`, at CYP11B, the inhibition at 1 h, 0.1 µM was < 32%. In addition, the inhibition at 20 h, 0.1 µM in series [6] is ≥ 30%. Also, the inhibition at 0.01 µM in series [7] was ≥ 80%. Further, the half-life at 1 µM in series [2] and in series [3] was 1 to 10 min throughout. Further, the concentration for half-maximal inhibition (IC50) in series [4] is ≤ 0.011 µM.
On to `C[C@]12CCOC(=O)C[C@@H]1CC[C@@H]1[C@@H]2CC[C@]2(C)C(c3cccnc3)=CC[C@@H]12`, for which the inhibition at 0.01 µM in series [1] was ≥ 38%. Further, the half-life at 1 µM in series [2] lay within 10 to 60 min; in series [3], 1 to 50 min. Besides, in series [4], the concentration for half-maximal inhibition (IC50) is ≤ 0.011 µM.
